According to PubChem BioAssay AID1963850 (Molecular Pharmacology Branch, DTP, NCI, 2024):

System: 192522-019-R-J2-PDC complex tumor spheroid viability
Assay: Anticancer human tumor 192522-019-R-J2-PDC patient-derived colon adenocarcinoma cell line growth inhibition [POLQ]
Settings: for IC50: curve of first compound; for viability, T/C: stronger effect = lower value
Method in brief: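 Growth inhibition in 3D: complex spheroids (tumor PDC, HUVEC, MSC) treated with POLQ inhibitor combinations; where Cmax unknown, highest tested concentration 10 microM, except SN-38 at 1 microM.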

[1] = second compound 0.0316 µM, first compound 0.0316 µM
[2] = second compound 0.0316 µM, first compound 0.1 µM
[3] = second compound 0.0316 µM, first compound 0.316 µM
[4] = second compound 0.0316 µM, first compound 1 µM
[5] = second compound 0.0316 µM, first compound 3.16 µM
[6] = second compound 0.0316 µM, first compound 10 µM
[7] = second compound 0.1 µM, first compound 0.0316 µM
[8] = second compound 0.1 µM, first compound 0.1 µM
[9] = second compound 0.1 µM, first compound 0.316 µM
[10] = second compound 0.1 µM, first compound 1 µM
[11] = second compound 0.1 µM, first compound 3.16 µM
[12] = second compound 0.1 µM, first compound 10 µM
[13] = second compound 0.316 µM, first compound 0.0316 µM
[14] = second compound 0.316 µM, first compound 0.1 µM
[15] = second compound 0.316 µM, first compound 0.316 µM
[16] = second compound 0.316 µM, first compound 1 µM
[17] = second compound 0.316 µM, first compound 3.16 µM
[18] = second compound 0.316 µM, first compound 10 µM
[19] = second compound 1 µM, first compound 0.0316 µM
[20] = second compound 1 µM, first compound 0.1 µM
[21] = second compound 1 µM, first compound 0.316 µM
[22] = second compound 1 µM, first compound 1 µM
[23] = second compound 1 µM, first compound 3.16 µM
[24] = second compound 1 µM, first compound 10 µM
[25] = second compound 3.16 µM, first compound 0.0316 µM
[26] = second compound 3.16 µM, first compound 0.1 µM
[27] = second compound 3.16 µM, first compound 0.316 µM
[28] = second compound 3.16 µM, first compound 1 µM
[29] = second compound 3.16 µM, first compound 3.16 µM
[30] = second compound 3.16 µM, first compound 10 µM
[31] = second compound 10 µM, first compound 0.0316 µM
[32] = second compound 10 µM, first compound 0.1 µM
[33] = second compound 10 µM, first compound 0.316 µM
[34] = second compound 10 µM, first compound 1 µM
[35] = second compound 10 µM, first compound 3.16 µM
[36] = second compound 10 µM, first compound 10 µM
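Note: spheroids exposed to drugs for seven days before reading.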
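Throughout, for viability, T/C: 100% = DMSO vehicle control viability in luminescence.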

`Nc1ccn(C2OC(CO)C(O)C2(F)F)c(=O)n1` (stereo not drawn) + Nc1ccc(C#CCN(C(=O)Cc2ncc(C(F)(F)F)cc2C(F)(F)F)c2ccc(F)cc2)nn1 showed an IC50 (second compound 0.0316 µM) greater than 10 µM, an IC50 (second compound 0.1 µM) greater than 10 µM and an IC50 (second compound 0.316 µM) greater than 10 µM. It also gave an IC50 (second compound 1 µM) greater than 10 µM, an IC50 (second compound 3.16 µM) greater than 10 µM and an IC50 (second compound 10 µM) greater than 10 µM. It also gave a viability, T/C [1] of 100%, a viability, T/C [2] of 96.1% and a viability, T/C [3] of 80.6%. For the same compound, the viability, T/C [4] was 80.3%, the viability, T/C [5] was 76.3% and the viability, T/C [6] was 69.5%. The viability, T/C [7] was 102%, the viability, T/C [8] was 94% and the viability, T/C [9] was 81%. The viability, T/C [10] was 76.8%, the viability, T/C [11] was 80.9% and the viability, T/C [12] was 66.8%. It also gave a viability, T/C [13] of 112%, a viability, T/C [14] of 90.9% and a viability, T/C [15] of 82.2%. For the same compound, the viability, T/C [16] was 80.4%, the viability, T/C [17] was 83.5% and the viability, T/C [18] was 69.7%. It also gave a viability, T/C [19] of 105%, a viability, T/C [20] of 94.7% and a viability, T/C [21] of 88.4%. The viability, T/C [22] was 82.9%, the viability, T/C [23] was 82.4% and the viability, T/C [24] was 69.8%. It also gave a viability, T/C [25] of 104%, a viability, T/C [26] of 91.4% and a viability, T/C [27] of 85.1%. For the same compound, the viability, T/C [28] was 82.3%, the viability, T/C [29] was 83.8% and the viability, T/C [30] was 71.4%. For the same compound, the viability, T/C [31] was 109%, the viability, T/C [32] was 98.5% and the viability, T/C [33] was 95.3%. It also gave a viability, T/C [34] of 84.6%, a viability, T/C [35] of 84.4% and a viability, T/C [36] of 72.2%.

In the case of `CC1COCCN1c1cc(C2(S(C)(=N)=O)CC2)nc(-c2ccnc3[nH]ccc23)n1` (stereo not drawn) + Cc1cccc(N(C)C(=O)C2C(O)CCN2c2nc(C)cc(C(F)(F)F)c2C#N)c1, the IC50 (second compound 0.0316 µM) is reported as 4.75 µM, the IC50 (second compound 0.1 µM) is reported as 4.15 µM and the IC50 (second compound 0.316 µM) is reported as 5.85 µM. For the same compound, the IC50 (second compound 1 µM) was 5.72 µM, the IC50 (second compound 3.16 µM) was 7.68 µM and the IC50 (second compound 10 µM) was 7.21 µM. The viability, T/C [1] was 112%, the viability, T/C [2] was 88% and the viability, T/C [3] was 92.8%. The viability, T/C [4] was 83.8%, the viability, T/C [5] was 59.9% and the viability, T/C [6] was 30.1%. The viability, T/C [7] was 101%, the viability, T/C [8] was 97.8% and the viability, T/C [9] was 97.7%. For the same compound, the viability, T/C [10] was 89.2%, the viability, T/C [11] was 54.8% and the viability, T/C [12] was 34.2%. For the same compound, the viability, T/C [13] was 106%, the viability, T/C [14] was 105% and the viability, T/C [15] was 105%. The viability, T/C [16] was 90.1%, the viability, T/C [17] was 64.5% and the viability, T/C [18] was 37.6%. It also gave a viability, T/C [19] of 97.6%, a viability, T/C [20] of 99.2% and a viability, T/C [21] of 96%. It also gave a viability, T/C [22] of 98.1%, a viability, T/C [23] of 64.3% and a viability, T/C [24] of 36.5%. The viability, T/C [25] was 104%, the viability, T/C [26] was 100% and the viability, T/C [27] was 103%. For the same compound, the viability, T/C [28] was 91.9%, the viability, T/C [29] was 78.7% and the viability, T/C [30] was 41.4%. The viability, T/C [31] was 95.5%, the viability, T/C [32] was 106% and the viability, T/C [33] was 113%. For the same compound, the viability, T/C [34] was 98.9%, the viability, T/C [35] was 75.7% and the viability, T/C [36] was 39.8%.

`COc1cccc2c1C(=O)c1c(O)c3c(c(O)c1C2=O)CC(O)(C(=O)CO)CC3OC1CC(N)C(O)C(C)O1` (stereo not drawn) + Cc1cccc(N(C)C(=O)C2C(O)CCN2c2nc(C)cc(C(F)(F)F)c2C#N)c1 was tested, and the IC50 (second compound 0.0316 µM) was greater than 10 µM, the IC50 (second compound 0.1 µM) was greater than 10 µM and the IC50 (second compound 0.316 µM) was greater than 10 µM. For the same compound, the IC50 (second compound 1 µM) was greater than 10 µM, the IC50 (second compound 3.16 µM) was greater than 10 µM and the IC50 (second compound 10 µM) was greater than 10 µM. The viability, T/C [1] was 99.3%, the viability, T/C [2] was 79.8% and the viability, T/C [3] was 73.9%. For the same compound, the viability, T/C [4] was 86.3%, the viability, T/C [5] was 69.6% and the viability, T/C [6] was 57.2%. It also gave a viability, T/C [7] of 94%, a viability, T/C [8] of 85.6% and a viability, T/C [9] of 72.5%. For the same compound, the viability, T/C [10] was 83.8%, the viability, T/C [11] was 69.1% and the viability, T/C [12] was 67.7%. The viability, T/C [13] was 98.3%, the viability, T/C [14] was 91.1% and the viability, T/C [15] was 69.4%. It also gave a viability, T/C [16] of 77%, a viability, T/C [17] of 65.2% and a viability, T/C [18] of 63.3%. For the same compound, the viability, T/C [19] was 110%, the viability, T/C [20] was 92% and the viability, T/C [21] was 76.5%. For the same compound, the viability, T/C [22] was 83.7%, the viability, T/C [23] was 75.5% and the viability, T/C [24] was 61.1%. The viability, T/C [25] was 96.5%, the viability, T/C [26] was 99.9% and the viability, T/C [27] was 74.2%. The viability, T/C [28] was 69.7%, the viability, T/C [29] was 70.9% and the viability, T/C [30] was 60.3%. The viability, T/C [31] was 102%, the viability, T/C [32] was 79.1% and the viability, T/C [33] was 69.9%. For the same compound, the viability, T/C [34] was 62.7%, the viability, T/C [35] was 67.3% and the viability, T/C [36] was 49.8%.

`COc1cc(C2c3cc4c(cc3C(OC3OC5COC(C)OC5C(O)C3O)C3COC(=O)C23)OCO4)cc(OC)c1O` (stereo not drawn) + Nc1ccc(C#CCN(C(=O)Cc2ncc(C(F)(F)F)cc2C(F)(F)F)c2ccc(F)cc2)nn1 gave an IC50 (second compound 0.0316 µM) greater than 10 µM, an IC50 (second compound 0.1 µM) greater than 10 µM and an IC50 (second compound 0.316 µM) greater than 10 µM. The IC50 (second compound 1 µM) was greater than 10 µM, the IC50 (second compound 3.16 µM) was greater than 10 µM and the IC50 (second compound 10 µM) was greater than 10 µM. For the same compound, the viability, T/C [1] was 105%, the viability, T/C [2] was 98.2% and the viability, T/C [3] was 86.9%. It also gave a viability, T/C [4] of 83.2%, a viability, T/C [5] of 68.9% and a viability, T/C [6] of 77.8%. For the same compound, the viability, T/C [7] was 110%, the viability, T/C [8] was 92.2% and the viability, T/C [9] was 97.5%. For the same compound, the viability, T/C [10] was 93.4%, the viability, T/C [11] was 65.4% and the viability, T/C [12] was 80.4%. It also gave a viability, T/C [13] of 106%, a viability, T/C [14] of 100% and a viability, T/C [15] of 96.4%. For the same compound, the viability, T/C [16] was 87%, the viability, T/C [17] was 67% and the viability, T/C [18] was 80%. The viability, T/C [19] was 100%, the viability, T/C [20] was 91.9% and the viability, T/C [21] was 98.2%. For the same compound, the viability, T/C [22] was 85.1%, the viability, T/C [23] was 73.9% and the viability, T/C [24] was 75%. The viability, T/C [25] was 109%, the viability, T/C [26] was 96.4% and the viability, T/C [27] was 95.9%. It also gave a viability, T/C [28] of 85.2%, a viability, T/C [29] of 72.7% and a viability, T/C [30] of 76.1%. The viability, T/C [31] was 104%, the viability, T/C [32] was 101% and the viability, T/C [33] was 96.9%. For the same compound, the viability, T/C [34] was 78.6%, the viability, T/C [35] was 79.7% and the viability, T/C [36] was 72.2%.
